In ChEMBL document CHEMBL4507258 (2021):

Experiments:
Conditions in all cases: Compound concentration 1000.0 nM
[1] = target: Tyrosine-protein kinase JAK3 (Homo sapiens) (UniProt P52333)
[2] = target: Cyclin-dependent kinase 8 (Homo sapiens) (UniProt P49336)
[3] = target: Ephrin type-A receptor 6 (Homo sapiens) (UniProt Q9UF33)
[4] = target: Death-associated protein kinase 1 (Homo sapiens) (UniProt P53355)
[5] = target: Mitogen-activated protein kinase kinase kinase 1 (Homo sapiens) (UniProt Q13233)
[6] = target: Tyrosine-protein kinase receptor UFO (Homo sapiens) (UniProt P30530)
[7] = target: Serine/threonine-protein kinase PLK2 (Homo sapiens) (UniProt Q9NYY3)
[8] = target: Vascular endothelial growth factor receptor 3 (Homo sapiens) (UniProt P35916)
[9] = target: Tyrosine-protein kinase HCK (Homo sapiens) (UniProt P08631)
[10] = target: Casein kinase II subunit alpha' (Homo sapiens) (UniProt P19784)
[11] = target: Phosphatidylinositol 4,5-bisphosphate 3-kinase catalytic subunit alpha isoform (Homo sapiens) (UniProt P42336)
[12] = target: Cyclin-dependent kinase 5 (Homo sapiens) (UniProt Q00535)
[13] = target: Platelet-derived growth factor receptor alpha (Homo sapiens) (UniProt P16234)
[14] = target: Ephrin type-A receptor 1 (Homo sapiens) (UniProt P21709)
[15] = target: Testis-specific serine/threonine-protein kinase 1 (Homo sapiens) (UniProt Q9BXA7)
[16] = target: Activin receptor type-2B (Homo sapiens) (UniProt Q13705)
[17] = tested on: Phosphatidylinositol 4,5-bisphosphate 3-kinase catalytic subunit alpha isoform (Homo sapiens), P42336 [Q546K]
[18] = target: Casein kinase I isoform alpha-like (Homo sapiens) (UniProt Q8N752)
[19] = target: TRAF2 and NCK-interacting protein kinase (Homo sapiens) (UniProt Q9UKE5)
[20] = target: Mitogen-activated protein kinase kinase kinase 5 (Homo sapiens) (UniProt Q99683)
[21] = target: Serine/threonine-protein kinase Nek9 (Homo sapiens) (UniProt Q8TD19)
[22] = target: NUAK family SNF1-like kinase 2 (Homo sapiens) (UniProt Q9H093)
[23] = target: Mitogen-activated protein kinase 4 (Homo sapiens) (UniProt P31152)
[24] = target: Serine/threonine-protein kinase Sgk2 (Homo sapiens) (UniProt Q9HBY8)
[25] = target: Serine/threonine-protein kinase PLK4 (Homo sapiens) (UniProt O00444)
[26] = target: Dual specificity protein kinase CLK1 (Homo sapiens) (UniProt P49759)
[27] = tested on: Serine/threonine-protein kinase B-raf (Homo sapiens), P15056 [V600E]
[28] = target: Aurora kinase A (Homo sapiens) (UniProt O14965)
[29] = target: Ribosomal protein S6 kinase alpha-4 (Homo sapiens) (UniProt O75676)
[30] = target: Activin receptor type-2A (Homo sapiens) (UniProt P27037)
[31] = target: Hormonally up-regulated neu tumor-associated kinase (Homo sapiens) (UniProt P57058)
[32] = tested on: Mast/stem cell growth factor receptor Kit (Homo sapiens), P10721 [D816H]
[33] = target: Mitogen-activated protein kinase 12 (Homo sapiens) (UniProt P53778)
[34] = target: Macrophage-stimulating protein receptor (Homo sapiens) (UniProt Q04912)
[35] = target: Serine/threonine-protein kinase WNK4 (Homo sapiens) (UniProt Q96J92)
[36] = target: Serine/threonine-protein kinase 10 (Homo sapiens) (UniProt O94804)
[37] = target: Cyclin-dependent kinase 4 (Homo sapiens) (UniProt P11802)
[38] = tested on: Epidermal growth factor receptor (Homo sapiens), P00533 [L861Q]
[39] = target: Casein kinase II subunit alpha (Homo sapiens) (UniProt P68400)
[40] = target: Tyrosine-protein kinase JAK2 (Homo sapiens) (UniProt O60674)
[41] = target: Phosphatidylinositol 4-phosphate 3-kinase C2 domain-containing subunit beta (Homo sapiens) (UniProt O00750)
[42] = tested on: Fibroblast growth factor receptor 3 (Homo sapiens), P22607 [G697C]
[43] = target: Non-receptor tyrosine-protein kinase TYK2 (Homo sapiens) (UniProt P29597)
[44] = target: Serine/threonine-protein kinase 25 (Homo sapiens) (UniProt O00506)
[45] = target: G protein-coupled receptor kinase 4 (Homo sapiens) (UniProt P32298)

Measured: residual activity

Chain of Serine/threonine-protein kinase PLK4 (Homo sapiens) (O00444 whole entry): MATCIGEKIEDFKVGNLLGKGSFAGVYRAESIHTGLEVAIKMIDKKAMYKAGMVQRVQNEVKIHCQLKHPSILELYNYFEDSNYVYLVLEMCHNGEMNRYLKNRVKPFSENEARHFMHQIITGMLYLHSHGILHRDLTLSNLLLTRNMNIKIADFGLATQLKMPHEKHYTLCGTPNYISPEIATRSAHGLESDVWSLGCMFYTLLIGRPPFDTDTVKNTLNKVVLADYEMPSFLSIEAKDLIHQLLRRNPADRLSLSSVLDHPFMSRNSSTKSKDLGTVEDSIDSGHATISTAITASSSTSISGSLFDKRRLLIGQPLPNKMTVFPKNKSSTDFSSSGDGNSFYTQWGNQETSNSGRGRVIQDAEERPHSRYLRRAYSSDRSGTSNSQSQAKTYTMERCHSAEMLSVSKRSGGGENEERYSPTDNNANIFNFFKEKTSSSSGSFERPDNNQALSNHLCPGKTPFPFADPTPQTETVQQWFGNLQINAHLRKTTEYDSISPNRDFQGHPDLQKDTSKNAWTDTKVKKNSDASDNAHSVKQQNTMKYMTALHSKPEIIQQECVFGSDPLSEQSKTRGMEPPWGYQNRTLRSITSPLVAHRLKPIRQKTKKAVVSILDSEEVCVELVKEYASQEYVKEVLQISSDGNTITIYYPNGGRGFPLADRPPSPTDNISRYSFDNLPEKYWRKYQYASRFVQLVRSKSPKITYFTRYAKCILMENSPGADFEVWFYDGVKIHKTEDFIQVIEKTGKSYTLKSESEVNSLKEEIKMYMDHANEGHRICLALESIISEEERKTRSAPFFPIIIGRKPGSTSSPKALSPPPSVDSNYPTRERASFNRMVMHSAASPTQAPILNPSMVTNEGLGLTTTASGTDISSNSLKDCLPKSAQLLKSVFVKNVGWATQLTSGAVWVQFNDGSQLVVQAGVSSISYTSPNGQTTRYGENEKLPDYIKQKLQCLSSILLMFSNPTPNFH
Chain of Mast/stem cell growth factor receptor Kit (Homo sapiens), P10721 [D816H] (P10721 whole entry D816H): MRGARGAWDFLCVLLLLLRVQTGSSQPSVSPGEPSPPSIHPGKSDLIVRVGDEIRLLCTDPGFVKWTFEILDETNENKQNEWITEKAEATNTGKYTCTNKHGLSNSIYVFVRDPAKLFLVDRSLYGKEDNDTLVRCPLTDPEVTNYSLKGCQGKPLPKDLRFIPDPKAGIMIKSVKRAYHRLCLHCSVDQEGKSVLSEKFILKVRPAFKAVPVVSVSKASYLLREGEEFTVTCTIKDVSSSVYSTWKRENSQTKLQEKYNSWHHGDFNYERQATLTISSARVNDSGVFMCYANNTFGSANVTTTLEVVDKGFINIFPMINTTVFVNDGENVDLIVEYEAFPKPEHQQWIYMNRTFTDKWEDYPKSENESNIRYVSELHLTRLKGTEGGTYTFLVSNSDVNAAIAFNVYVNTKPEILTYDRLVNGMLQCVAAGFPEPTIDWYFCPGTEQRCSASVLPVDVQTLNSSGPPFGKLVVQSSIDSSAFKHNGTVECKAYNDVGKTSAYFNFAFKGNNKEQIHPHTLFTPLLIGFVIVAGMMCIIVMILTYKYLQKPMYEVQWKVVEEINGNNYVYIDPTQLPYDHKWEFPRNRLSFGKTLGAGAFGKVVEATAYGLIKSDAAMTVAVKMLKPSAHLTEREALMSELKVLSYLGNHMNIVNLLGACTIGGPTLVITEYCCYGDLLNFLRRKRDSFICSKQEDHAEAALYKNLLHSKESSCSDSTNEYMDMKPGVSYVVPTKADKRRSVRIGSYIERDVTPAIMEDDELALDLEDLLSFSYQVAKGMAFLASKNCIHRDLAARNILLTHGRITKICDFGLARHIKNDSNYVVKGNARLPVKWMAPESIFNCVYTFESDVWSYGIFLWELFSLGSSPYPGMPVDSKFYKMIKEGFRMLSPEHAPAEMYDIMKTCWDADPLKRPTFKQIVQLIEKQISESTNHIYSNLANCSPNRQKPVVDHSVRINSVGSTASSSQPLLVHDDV
Chain of Serine/threonine-protein kinase 25 (Homo sapiens) (O00506 whole entry, looked up): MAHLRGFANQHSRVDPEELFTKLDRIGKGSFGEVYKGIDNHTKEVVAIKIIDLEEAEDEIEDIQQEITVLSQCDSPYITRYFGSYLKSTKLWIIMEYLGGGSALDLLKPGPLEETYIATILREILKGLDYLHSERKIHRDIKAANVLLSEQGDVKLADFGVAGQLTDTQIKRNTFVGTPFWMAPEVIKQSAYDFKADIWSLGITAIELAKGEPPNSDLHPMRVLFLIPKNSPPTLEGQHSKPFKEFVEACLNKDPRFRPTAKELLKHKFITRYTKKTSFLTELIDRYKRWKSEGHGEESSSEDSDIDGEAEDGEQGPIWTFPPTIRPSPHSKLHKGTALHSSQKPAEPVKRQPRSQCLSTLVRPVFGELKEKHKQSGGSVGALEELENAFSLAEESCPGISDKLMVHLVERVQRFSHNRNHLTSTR
Chain of Cyclin-dependent kinase 4 (Homo sapiens) (P11802 whole entry): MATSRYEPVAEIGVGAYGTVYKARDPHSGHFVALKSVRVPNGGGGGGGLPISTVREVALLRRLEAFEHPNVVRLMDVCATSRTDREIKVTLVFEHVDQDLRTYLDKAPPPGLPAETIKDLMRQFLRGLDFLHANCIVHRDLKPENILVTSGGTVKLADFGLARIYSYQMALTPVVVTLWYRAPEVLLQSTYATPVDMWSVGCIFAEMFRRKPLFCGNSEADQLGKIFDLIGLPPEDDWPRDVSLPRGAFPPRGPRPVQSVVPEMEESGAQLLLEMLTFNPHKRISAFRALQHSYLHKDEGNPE
Chain of Phosphatidylinositol 4,5-bisphosphate 3-kinase catalytic subunit alpha isoform (Homo sapiens), P42336 [Q546K] (P42336 whole entry Q546K, canonical isoform): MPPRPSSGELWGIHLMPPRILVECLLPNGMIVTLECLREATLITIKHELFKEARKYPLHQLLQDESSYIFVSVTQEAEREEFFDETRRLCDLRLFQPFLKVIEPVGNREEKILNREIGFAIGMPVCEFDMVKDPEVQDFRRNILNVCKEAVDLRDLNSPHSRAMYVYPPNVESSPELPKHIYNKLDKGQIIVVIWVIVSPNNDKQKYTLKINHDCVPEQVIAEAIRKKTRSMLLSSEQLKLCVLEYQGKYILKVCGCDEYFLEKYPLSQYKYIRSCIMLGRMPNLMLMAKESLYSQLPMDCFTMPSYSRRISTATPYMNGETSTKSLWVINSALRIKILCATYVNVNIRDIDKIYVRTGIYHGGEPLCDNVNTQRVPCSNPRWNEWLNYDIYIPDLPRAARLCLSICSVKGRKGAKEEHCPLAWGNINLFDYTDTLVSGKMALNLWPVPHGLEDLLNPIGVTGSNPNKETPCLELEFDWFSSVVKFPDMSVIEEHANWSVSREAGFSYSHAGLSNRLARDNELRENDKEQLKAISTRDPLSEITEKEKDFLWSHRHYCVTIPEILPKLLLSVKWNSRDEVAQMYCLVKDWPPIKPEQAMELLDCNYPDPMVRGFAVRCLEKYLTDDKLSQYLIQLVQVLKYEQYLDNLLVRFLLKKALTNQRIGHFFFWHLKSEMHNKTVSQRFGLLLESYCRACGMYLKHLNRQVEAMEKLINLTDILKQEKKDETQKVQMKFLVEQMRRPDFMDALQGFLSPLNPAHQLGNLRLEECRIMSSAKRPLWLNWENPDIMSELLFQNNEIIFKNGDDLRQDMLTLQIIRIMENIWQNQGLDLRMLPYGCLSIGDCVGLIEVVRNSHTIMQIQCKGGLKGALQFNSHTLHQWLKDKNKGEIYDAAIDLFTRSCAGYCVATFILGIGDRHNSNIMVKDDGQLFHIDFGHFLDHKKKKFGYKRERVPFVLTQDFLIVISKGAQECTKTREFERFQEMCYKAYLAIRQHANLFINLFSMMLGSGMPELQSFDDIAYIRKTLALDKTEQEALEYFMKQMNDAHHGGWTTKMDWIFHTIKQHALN
Chain of Activin receptor type-2B (Homo sapiens) (Q13705 whole entry, canonical isoform): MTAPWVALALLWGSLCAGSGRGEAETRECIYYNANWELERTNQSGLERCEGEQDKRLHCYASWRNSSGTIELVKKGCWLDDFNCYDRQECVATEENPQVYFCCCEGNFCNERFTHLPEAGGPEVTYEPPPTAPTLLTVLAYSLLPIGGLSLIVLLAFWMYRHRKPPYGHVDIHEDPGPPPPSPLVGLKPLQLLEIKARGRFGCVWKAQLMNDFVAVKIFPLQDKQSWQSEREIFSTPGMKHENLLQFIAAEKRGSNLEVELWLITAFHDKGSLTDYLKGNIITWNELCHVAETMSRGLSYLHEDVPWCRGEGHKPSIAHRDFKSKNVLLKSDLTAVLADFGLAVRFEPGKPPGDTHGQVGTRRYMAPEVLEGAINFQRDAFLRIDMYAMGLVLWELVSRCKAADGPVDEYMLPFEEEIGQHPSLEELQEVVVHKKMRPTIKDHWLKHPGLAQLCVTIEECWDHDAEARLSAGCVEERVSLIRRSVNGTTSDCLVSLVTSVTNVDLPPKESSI
Chain of Tyrosine-protein kinase HCK (Homo sapiens) (P08631 2-526 limits assumed): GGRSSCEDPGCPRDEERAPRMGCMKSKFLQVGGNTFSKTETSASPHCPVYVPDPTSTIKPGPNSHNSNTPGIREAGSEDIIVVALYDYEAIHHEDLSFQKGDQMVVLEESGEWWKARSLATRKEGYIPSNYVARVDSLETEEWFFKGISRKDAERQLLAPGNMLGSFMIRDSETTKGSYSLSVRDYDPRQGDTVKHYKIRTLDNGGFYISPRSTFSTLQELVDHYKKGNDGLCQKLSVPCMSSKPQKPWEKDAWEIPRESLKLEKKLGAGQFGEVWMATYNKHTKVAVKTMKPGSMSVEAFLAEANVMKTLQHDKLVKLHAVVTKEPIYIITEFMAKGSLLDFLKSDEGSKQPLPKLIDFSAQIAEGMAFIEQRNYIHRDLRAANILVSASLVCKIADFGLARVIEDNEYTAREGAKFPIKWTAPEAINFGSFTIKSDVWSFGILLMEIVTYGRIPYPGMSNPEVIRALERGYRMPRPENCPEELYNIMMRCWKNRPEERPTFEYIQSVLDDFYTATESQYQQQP
Chain of Phosphatidylinositol 4,5-bisphosphate 3-kinase catalytic subunit alpha isoform (Homo sapiens) (P42336 whole entry, canonical isoform): as the sequence (P42336 whole entry Q546K, canonical isoform) above, with K546Q counted along it

CCCCN(CCCC)C(=O)CN1C[C@@H](c2cc(OC)c3c(c2)OCO3)[C@H](C(=O)O)[C@H]1CC(C)(C)CCC [A-545]
inactive: [1] 93.6% | [2] 78% | [3] 100% | [4] 82.8% | [5] 100% | [6] 87.2% | [7] 98.4% | [8] 100% | [9] 82.8% | [10] 77.1% | [11] 95.9% | [12] 97.7% | [13] 100% | [14] 85.5% | [15] 100% | [16] 85.1% | [17] 100% | [18] 91.1% | [19] 86% | [20] 100% | [21] 84.2% | [22] 100% | [23] 100% | [24] 78.5% | [25] 84.1% | [26] 100% | [27] 100% | [28] 90.2% | [29] 97.2% | [30] 85.1% | [31] 96.8% | [32] 78.5% | [33] 100% | [34] 100% | [35] 100% | [36] 82.4% | [37] 92.7% | [38] 100% | [39] 88.6% | [40] 91% | [41] 73.6% | [42] 94% | [43] 100% | [44] 88.1% | [45] 95.8%

CCCCN(CCCC)C(=O)CN1C[C@H](c2cc(OC)c3c(c2)OCO3)[C@@H](C(=O)O)[C@@H]1CC(C)(C)CCC [ABT-546]
inactive: [1] 71.3% | [2] 100% | [3] 100% | [4] 100% | [5] 100% | [6] 100% | [7] 67.1% | [8] 100% | [9] 100% | [10] 98.4% | [11] 89.7% | [12] 100% | [13] 56.1% | [14] 92.6% | [15] 100% | [16] 100% | [17] 67.3% | [18] 100% | [19] 100% | [20] 100% | [21] 100% | [22] 79.4% | [23] 100% | [24] 69.9% | [25] 100% | [26] 96.1% | [27] 89.1% | [28] 90.3% | [29] 75% | [30] 97.4% | [31] 100% | [32] 67.3% | [33] 100% | [34] 100% | [35] 97.9% | [36] 100% | [37] 100% | [38] 76.4% | [39] 68.5% | [40] 100% | [41] 65.9% | [42] 80.2% | [43] 100% | [44] 100% | [45] 100%
